Source: publication PMC5483439, “The Effect of Pungent and Tingling Compounds from Piper nigrum L. on Background K^+ Currents” (Frontiers in Pharmacology, 2017)
Read-outs that look alike come from different tables or passages of the source.

Experiments:
[1] = molecular target: T1, hKCNK3 (Homo sapiens, UniProt O14649); experiment: Two-electrode voltage clamp on Xenopus laevis oocytes expressing hKCNK3; format: cell-based; settings: for effect on basal activity of hKCNK3: 1 mM; for % of basal activity after saturating concentrations: hKCNK3 in Xenopus oocytes
T1 construct: expressed in transfected cells; host or cells: Xenopus laevis oocytes injected with cRNA (plasmid pIRES-CD8, gift of Dr. Fabrice Duprat)
Source text: (§1) Human KCNK3 (TASK-1, K2P3.1) cloned into the expression vector pIRES-CD8 was a gift from Dr. Fabrice Duprat (Institut National de la Santé et de la Recherche Médicale, Antipolis, France). Human KCNK18 (hTRESK, K2P18.1), cloned into the plasmid pEXO, was a gift from Dr. P. Enyedi (Semmelweis University, Budapest, Hungary). These plasmids were linearized with the restriction enzymes BamHI and XbaI, respectively, and then used as templates for in vitro transcription. Human KCNK9 (hTASK-3, K2P9.1) cloned into the expression vector pCR4-TOPO, was purchased from Imagenes (Berlin, Germany). The plasmid was linearized with the restriction enzyme SspI, to generate a linear cDNA template for in vitro transcription. mKCNK3 was isolated from mouse heart by standard procedures and inserted into pSGEM. mKCNK9 and mKCNK18 were kindly provided by Dr. D. Bayliss (University of Virginia, Charlottesville, VA, United States) and Prof. Dr. P. Enyedi (Semmelweis University, Budapest, Hungary). Both channels were subcloned into pSGEM. The pSGEM plasmids were subsequently linearized with the restriction enzyme PacI. The capped RNAs were synthesized in the presence of the capping analog m7G(5′)ppp(5′)G using the AmpliCap-T7 Message Maker kit (Epicentre, Madison, WI, United States). The cRNA was dissolved in nuclease-free water to obtain a final concentration of 100 ng/μL.
(§2) The expression in Xenopus laevis oocytes was essentially performed as previously described ([Beltrán et al., 2013]). Briefly, mature female Xenopus laevis frogs were anesthetized with 0.15% MS-222, and surgery was performed according to standard methods, where the extracted ovarian lobes were placed into Ca^2+-free Barth solution containing collagenase type II (Worthington Biochemical Corporation, Lakewood, NJ, United States) and kept for 90 min on a shaker at 40 rpm (room temperature). Healthy stage V and VI oocytes were selected for injection with cRNA coding for the proteins of interest. Thirty nanoliters of cRNA (100 ng/μL) of each channel were injected using a Microinjector Micro 4 ^TM (World Precision Instruments). After injection, the oocytes were kept in ND96 (96 mM NaCl; 2 mM KCl; 1.8 mM CaCl2; 1 mM MgCl2; 2.5 mM Sodium pyruvate; 10 mM, HEPES [4-(2-hydroxyethyl)-1-piperazineethanesulfonic acid), pH 7.4]. The measurements were performed 24 to 72 h after injection. The oocytes were placed in a 100 μL chamber that was perfused with frog Ringer’s solution (115 mM NaCl; 2.5 mM KCl; 1.8 mM CaCl2, and 10 mM HEPES, pH 7.2). The substances were dissolved in this solution before being manually applied to the oocytes using an automatic pipette (Research pro, Eppendorf, Germany). The application time was usually three ramps (approximately 10 s). For recording, a Turbo Tec-03x (npi electronic GmbH, Tamm, Germany) amplifier was used, with an acquisition rate of 1000 Hz and a low pass filter of 20 Hz. Borosilicate glass capillaries were pulled with a Kopf vertical pipette puller. The pulled glass capillaries were filled with 3 M KCl.
A ramp series protocol was used to evaluate the activity of KCNK channels as previously described ([Beltrán et al., 2013]). Briefly, voltage ramps from –100 mV to + 50 mV ([…]) followed by a constant of +50 mV (150 ms) were applied at a time interval of 2 s. […] This value was then normalized to the average obtained from three ramps prior to the application. In most cases, the currents elicited by this voltage-clamp ramp series protocol were more than ten times larger than the background currents observed in uninjected oocytes, while also presenting the described outward rectification under physiological concentrations of intracellular and extracellular K^+ ([Goldstein et al., 2001]; [Enyedi and Czirják, 2010]). Due to these characteristics, no leakage subtraction was considered necessary. Oocytes not fulfilling these characteristics were not considered for data analysis. […]

[2] = molecular target: T2, hKCNK9 (Homo sapiens, UniProt Q9NPC2); experiment: Two-electrode voltage clamp on Xenopus laevis oocytes expressing hKCNK9; format: cell-based; settings: for effect on basal activity of hKCNK9: 1 mM
T2 construct: host or cells: Xenopus laevis oocytes injected with cRNA (plasmid pCR4-TOPO)
Source text: as §1
as §2, with “For recording, a Turbo Tec-03x (npi electronic GmbH, Tamm, Germany) amplifier was used, with an acquisition rate of 1000 Hz and a low pass filter of 20 Hz. Borosilicate glass capillaries were pulled with a Kopf vertical pipette puller. The pulled glass capillaries were filled with 3 M KCl.” left out

[3] = molecular target: T3, hKCNK18 (Homo sapiens, UniProt Q7Z418); experiment: Two-electrode voltage clamp on Xenopus laevis oocytes expressing hKCNK18; format: cell-based; settings: for effect on basal activity of hKCNK18: 1 mM
T3 construct: expressed in transfected cells; host or cells: Xenopus laevis oocytes injected with cRNA (plasmid pEXO, gift of Dr. P. Enyedi)
T3 sequence (Q7Z418 1-384): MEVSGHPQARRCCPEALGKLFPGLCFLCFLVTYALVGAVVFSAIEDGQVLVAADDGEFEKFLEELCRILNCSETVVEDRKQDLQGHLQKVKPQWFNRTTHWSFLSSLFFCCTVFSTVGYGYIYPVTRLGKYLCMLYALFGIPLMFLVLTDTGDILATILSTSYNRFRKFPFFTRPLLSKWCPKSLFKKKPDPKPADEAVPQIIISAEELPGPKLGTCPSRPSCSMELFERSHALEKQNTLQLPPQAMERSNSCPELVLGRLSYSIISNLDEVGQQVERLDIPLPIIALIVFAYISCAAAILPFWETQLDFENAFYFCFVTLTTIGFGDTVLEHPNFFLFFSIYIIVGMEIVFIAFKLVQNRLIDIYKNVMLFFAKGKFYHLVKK
Source text: as §1
The expression in Xenopus laevis oocytes was essentially performed as previously described ([Beltrán et al., 2013]). Briefly, mature female Xenopus laevis frogs were anesthetized with 0.15% MS-222, and surgery was performed according to standard methods, where the extracted ovarian lobes were placed into Ca^2+-free Barth solution containing collagenase type II (Worthington Biochemical Corporation, Lakewood, NJ, United States) and kept for 90 min on a shaker at 40 rpm (room temperature). Healthy stage V and VI oocytes were selected for injection with cRNA coding for the proteins of interest. Thirty nanoliters of cRNA (100 ng/μL) of each channel were injected using a Microinjector Micro 4 ^TM (World Precision Instruments). […]

[4] = test system: tongue surface; parameters: method as in Dawid et al., 2012; settings: human, ref Dawid et al., 2012, cited from earlier work; for pungent threshold concentration / tingling threshold concentration: filter paper on tongue
[5] = test system: background current of mouse trigeminal neurons; experiment: Whole-cell patch clamp on cultured mouse trigeminal neurons; format: cell-based; settings: 100 μM XE-991, Na+/Ca2+-free solution
Method: Trigeminal ganglia neurons were isolated from Swiss CD-1 mice (Charles River Laboratories, Sulzfeld, Germany). All experiments involving animals were carried out in accordance with the European Union Community Council’s guidelines and approved by the competent state office of the Federal Land of Northrhine Westphalia (file number 87-51.04.2010.A180). At postnatal day 2–5, the mice were sacrificed by decapitation. The brain was removed, and both trigeminal ganglia were excised. The ganglia were washed in PBS+/+ (Invitrogen, Karlsruhe, Germany) and collected in Leibovitz Medium (L15, Invitrogen) on ice. The ganglia were transferred to Dulbecco’s modified essential medium (DMEM) containing 0.025% collagenase (type IA, Sigma–Aldrich). The minced ganglia were incubated for 45 min in a humidified atmosphere (37°C, 95% humidity, 6% CO2) before trituration. The cell suspension was centrifuged at 1000 rpm for 4 min at room temperature and the pellet was resuspended in F-12 medium (Invitrogen; 31331-D-MEM/F-12, GlutaMax^TM) supplemented with 10% fetal bovine serum (FBS^TM; Invitrogen), 200 U/mL penicillin and 200 U/mL streptomycin. The cell suspension (50 μL) was then plated on poly L-lysine (0.01%) coated glass coverslips (30 mm, Sarstedt, Nümbrecht, Germany), placed in cell culture dishes (35 mm) and kept in a humidified atmosphere (37°C, 95% humidity, 6% CO2) for 1 h. Subsequently, F-12 medium (2 mL) supplemented with FBS (10%), 200 U/mL penicillin and 200 U/mL streptomycin was added to each dish. The cells were kept in an incubator (37°C, 95% humidity, 6% CO2) until use.
The recordings were performed using the whole-cell configuration of the patch-clamp technique. The cells were maintained in an extracellular recording solution containing 140 mM NaCl, 5 mM KCl, 2 mM MgCl2, 2 mM CaCl2, 10 mM HEPES and 10 mM glucose, pH 7.4. The Ca^2+ and Na^+- free extracellular solution contained: 140 mM NMDG-Cl, 5 mM KCl, 2 mM MgCl2, 5 mM EGTA, 10 mM HEPES, pH 7.4. The patch electrodes were pulled from borosilicate glass (1.2 mm OD × 1.17 mm ID; Harvard apparatus, Edenbridge, Kent, United Kingdom) and fire polished to 2.5–4 MΩ tip resistance using a horizontal pipette puller (Zeitz Instruments, Munich, Germany) to obtain a patch of approximately 1–2 μm diameter. The pipette solution contained 140 mM KCl, 1 mM MgCl2, and 10 mM HEPES, pH 7.4. All recordings were performed at room temperature with an EPC7 amplifier (List-Medical Electronic, Darmstadt, Germany). The capacity and serial resistance were adjusted manually. The substances were applied via a custom-made manifold superfusion device. […] The data were acquired using Pulse software (HEKA, Lambrecht, Germany) and analyzed with PulseFit (HEKA, Lambrecht, Germany). Unless otherwise stated, the data are expressed as the mean ± SEM. […]

[6] = Xenopus oocytes, current at +50 mV normalized to pre-application, read-out: IC50 on hKCNK3

T1 sequence (O14649 whole entry): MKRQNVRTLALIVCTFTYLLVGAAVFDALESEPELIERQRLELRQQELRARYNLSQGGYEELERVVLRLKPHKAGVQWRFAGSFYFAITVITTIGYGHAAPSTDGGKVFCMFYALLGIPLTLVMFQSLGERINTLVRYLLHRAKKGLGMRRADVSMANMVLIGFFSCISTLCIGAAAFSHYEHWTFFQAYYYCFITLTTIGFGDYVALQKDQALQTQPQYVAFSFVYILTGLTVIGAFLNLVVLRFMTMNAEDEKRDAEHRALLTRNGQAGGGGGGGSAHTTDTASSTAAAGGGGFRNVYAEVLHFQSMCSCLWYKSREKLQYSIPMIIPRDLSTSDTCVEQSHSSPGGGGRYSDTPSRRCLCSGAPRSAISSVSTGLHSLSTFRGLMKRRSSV
T2 sequence (Q9NPC2 whole entry): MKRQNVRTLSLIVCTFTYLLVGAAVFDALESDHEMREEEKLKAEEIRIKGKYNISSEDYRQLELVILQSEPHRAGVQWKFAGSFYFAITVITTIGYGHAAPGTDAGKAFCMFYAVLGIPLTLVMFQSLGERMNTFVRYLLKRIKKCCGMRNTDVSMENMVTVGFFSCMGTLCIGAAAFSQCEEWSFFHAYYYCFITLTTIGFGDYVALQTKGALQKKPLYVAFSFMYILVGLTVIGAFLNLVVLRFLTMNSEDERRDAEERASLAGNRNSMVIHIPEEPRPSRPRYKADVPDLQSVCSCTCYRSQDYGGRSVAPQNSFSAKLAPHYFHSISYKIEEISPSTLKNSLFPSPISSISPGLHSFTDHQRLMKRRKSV

Row | effect on basal activity of hKCNK3 ([1]; Xenopus oocytes) | IC50 [1, 6] | % of basal activity after saturating concentrations [1] | Compound | pungent threshold concentration [4] | further results
1 | decrease in their basal activity | 180 ± 39 µM | 55 ± 5% | O=C(/C=C/C=C/c1ccc2c(c1)OCO2)N1CCCC1 [1b, piperyline] | 5.1 nmol/cm^2 | effect on basal activity of hKCNK9 [2]: decrease in their basal activity; effect on basal activity of hKCNK18 [3]: decrease in their basal activity; IC50 ([3]; N = 3–6): 252 ± 55 µM; threshold for oral pungency [4]: 0.005 μmol/cm^2
2 |  |  |  | CCCCC/C=C\CCCCCC/C=C/C=C/C(=O)NCC(C)C [6c, (2E,4E,12Z)-N-isobutyl-octadeca-2,4,12-trienamide] | 540.5 nmol/cm^2 | tingling threshold concentration [4]: 2162.1 nmol/cm^2
3 |  | 44 ± 6.7 µM | 39 ± 1% | O=C(/C=C/C=C/CC/C=C/c1ccc2c(c1)OCO2)N1CCCCC1 [3a, dehydropipernonaline] | 152.1 nmol/cm^2 | 
4 | most pronounced effect | 32 ± 11 µM | 51 ± 5% | O=C(/C=C/C=C/CCCCCC/C=C/c1ccc2c(c1)OCO2)N1CCCC1 [4b, brachyamide A] |  | 
5 |  |  |  | CCCCCCCCCCCCC/C=C/C=C/C(=O)NCC(C)C [7c, (2E,4E)-N-isobutyl-octadeca-2,4-dienamide] | 763.0 nmol/cm^2 | 
6 |  |  |  | O=C1c2ccccc2C(Cc2ccncc2)(Cc2ccncc2)c2ccccc21 [XE-991, reference compound] |  | effect of pre-incubation on background current [5]: marked decrease
7 | decrease in their basal activity | 113 ± 79.5 µM | 50 ± 14% | CC(C)CNC(=O)/C=C/C=C/c1ccc2c(c1)OCO2 [1c, piperlonguminine] | 10.4 nmol/cm^2 | effect on basal activity of hKCNK9 [2]: decrease in their basal activity; effect on basal activity of hKCNK18 [3]: decrease in their basal activity; threshold for oral pungency [4]: 0.01 μmol/cm^2
8 | most pronounced effect | 49.6 ± 8.5 µM | 35 ± 3% | O=C(/C=C/C=C/CC/C=C/c1ccc2c(c1)OCO2)N1CCCC1 [3b, 1-[1-oxo-9(3,4-methylenedioxyphenyl)-2E,4E,8E-nonatrienyl]-pyrrolidine] |  | 
9 |  |  |  | CCCC/C=C\CCCCCCC/C=C/C=C/C(=O)NCC(C)C [5c, (2E,4E,13Z)-N-isobutyl-octadeca-2,4,13-trienamide] | 540.5 nmol/cm^2 | tingling threshold concentration [4]: 2162.1 nmol/cm^2
10 | most pronounced effect | 19 ± 2.1 µM | 27 ± 3% | 1-(octadeca-2E,4E,13/12Z-trienoyl)-pyrrolidine [5b/6b] |  | effect on basal activity of hKCNK9 [2]: inhibited; IC50 ([2]; N = 3–6): 236 ± 56 µM
11 |  |  |  | CCCCC/C=C\CCCCCCCC/C=C/C=C/C(=O)NCC(C)C [9c, (2E,4E,14Z)-N-isobutyl-eicosa-2,4,14-trienamide] | 741.2 nmol/cm^2 | tingling threshold concentration [4]: 1482.3 nmol/cm^2
12 |  |  |  | O=C(/C=C/C=C/C=C/c1ccc2c(c1)OCO2)N1CCCCC1 [2a, piperettine] | 5.2 nmol/cm^2 | 
13 |  |  |  | CCCC/C=C\CCCCCCCCC/C=C/C=C/C(=O)NCC(C)C [8c, (2E,4E,15Z)-N-isobutyl-eicosa-2,4,15-trienamide] | 741.2 nmol/cm^2 | tingling threshold concentration [4]: 1482.3 nmol/cm^2
14 |  | 70 ± 32.8 µM | 57 ± 7% | (2E,4E,13/12Z)-N-isobutyl-octadeca-2,4,12/13-trienamide [5c/6c] |  | 

Row | Compound | effect on basal activity of hKCNK3 ([1]; Xenopus oocytes) | IC50 [1, 6] | % of basal activity after saturating concentrations [1] | pungent threshold concentration [4] | further results
15 | CC(C)CNC(=O)/C=C/C=C/CCCCCC/C=C/c1ccc2c(c1)OCO2 [4c, guineensine] |  |  | 48 ± 2.8% | 810.1 nmol/cm^2 | IC50 [1]: 90.9 ± 12.7 µM
